Experimental data: patent US5180739A, “Use of 3-oxygermylpropionic acid to treat and prevent diabetes-dependent type of autoimmune diseases” (Sanwa Kagaku Kenkyusho Co., Ltd., priority 1990, dated 1993)

Legend:
mice = experiment: Acute toxicity test, oral administration (LD50), mice; format: in vivo
Procedure: (§1) Acute and subacute (chronic) toxicity tests were performed using SD rats and mice which has received 3-oxygermylpropionic acid represented by Formula I (hereinafter referred to Compound a) and the above-mentioned primary composition (hereinafter called Composition b).
(§2) For experimentation, a group of 8-10 animals were used.
(§3) Oral administration (no significant
(§4) difference between Compound -a and […]

[1] = system: mice with streptozosin-induced diabetes; experiment: Amount of insulin in the pancreas of mice with STZ-induced diabetes; format: in vivo, AKR/J1 mouse; settings: rejection rate of 5%
Procedure: (§5) Continuous 5-day administration of streptozocin (STZ) to an AKR/J1 line mice, that ia an inbred mice with a spontaneous symptom of leukemia, can cause it to take a disease similar to human Type I diabetes (dependent upon insulin). Tests were performed for the purpose of going into influence Compound a and Composition b have on such a mice with streptozosin-induced diabetes.
(§6) Streptozocin (STZ) was continuously administrated to the abdominal cavity of a (masculine) mouse belonging to AKR/J1 at a dose of 40 mg/kg for 5 days to induce an increase in the concentration of glucose in the blood and a decrease in the amount of insulin in the pancreas.
(§7) With Compound a dissolved in a phosphate buffer solution with pH 7.4, the concentration of glucose in the blood was measured at 7 days, 14 days and 21 days from STZ dosing, using a GOD-PAP kit (made by Boehringer Mannheim) based on the glucose oxidase process for measurement. In addition, the amount of insulin in the pancreas, extracted by the acid-ethanol process, was assayed with a radio immuno assay kit (made by Pharmacia Aktiebolag) based on an immunoassay process making use of a competitive reaction by ^125 I-labeled insulin (see Soeldner, JS & Slone, D, "Diabetes", Vol. 14, pp. 771-779, 1985).
(§8) A similar mouse was caused to develop STZ-induced diabetes in a similar manner as referred to in Test Example 1.
(§9) A solution of Compound a in a phosphate buffer with pH 7.4 was continuously administered to the abdominal cavity of the animal at 5 mg/kg over 7 days from STZ dosing.
(§10) At 7 days, 14 days and 21 days from STZ dosing, the concentration of glucose in the blood and the amount of insulin in the pancreas were measured in similar manners as mentioned in Test Example 1.
(§11) A solution of Compound a in a phosphate buffer with pH 7.4 was continuously administered to the abdominal cavity of the animal at 5 mg/kg 15 days from the 7th day after STZ dosing.

[2] = Japanese Patent Kokai Publication No. Sho 61-161123; cited from earlier work
SD male rats = experiment: Subacute toxicity test, oral, over 3 months; format: in vivo
Procedure: as §1, §2
Over 3 months, Compound a and Composition b were orally administered to two groups of SD male rats at doses of 256, 380, 640, 1300, 1600 and 4000 mg/kg/day to determined which dose to have no toxic influence at all and which dose to induce positive poisoning.

[3] = system: mice with streptozosin-induced diabetes; experiment: Concentration of glucose in the blood of mice with STZ-induced diabetes; format: in vivo, AKR/J1 mouse; settings: rejection rate of 5%
Procedure: as §5, §6, §7, §8, §9, §10, §11

Langerhans' islands = experiment: Degree of cellular infiltration in the Langerhans' islands of mice with STZ-induced diabetes; format: in vivo, AKR/J1 mouse; settings: for Degrees of pancreatitis, 0 (0%) / Degrees of pancreatitis, I (0-25%) / Degrees of pancreatitis, II (25-50%) / Degrees of pancreatitis, III (50-100%) / Incidence of pancreatitis (I-III): STZ + a, at 21 days; for Incidence of pancreatitis (I-III): STZ + buffer 68
Procedure: as §5
Similar mice were caused to develop STZ-induced diabetes in a similar manner as described in Test Example 1.
A solution of Compound a in a similar phosphate buffer with pH 7.4 as used in Test Example 1 was continuously administrated at a rejection rate of 5% to the abdominal cavities according to similar dosing schemes as applied in Test Examples 1, 2 and 3.
At 21 days from STZ dosing, the degree of cellular infiltration in the Langerhans' islands were assayed under an optical microscope.

SD rats = experiment: Acute toxicity test, oral administration (LD50), rats; format: in vivo
Procedure: as §1, §2, §3, §4

SD rats and mice = experiment: Acute toxicity test, comparison and general symptoms; format: in vivo
Procedure: as §1, §2

3-oxygermylpropionic acid [Compound a]
LD50 (mice; female): ≥ 5,800 mg/kg
LD50 (mice; male): ≥ 5,600 mg/kg
amount of insulin in the pancreas (decreased by STZ) ([1]; Test Example 1, 21 days from dosing, FIG. 1(b)): significant improvements
amount of insulin in the pancreas (decreased by STZ) ([1]; Test Example 2, 5 mg/kg to the abdominal cavity over 7 days from STZ dosing, 21 days from dosing, FIG. 2(b)): significant improvements
amount of insulin in the pancreas (decreased by STZ) ([1]; Test Example 3, 5 mg/kg to the abdominal cavity 15 days from the 7th day after STZ dosing, 21 days from dosing): significant improvements
immunity-accommodative actions [2]: immunity-accommodative actions
dose inducing positive poisoning (SD male rats; SD male rats, oral, 3 months, daily): 1600 mg/kg
reversibility of toxic symptoms without drug treatment (SD male rats; rat, in vivo): Toxic symptoms then disappeared
dose with no toxic influence whatsoever (SD male rats; rat, in vivo, po, 131400 min): 256 mg/kg
concentration of glucose in the blood (increased by STZ) ([3]; Test Example 1, 21 days from dosing, FIG. 1(a)): significant improvements
concentration of glucose in the blood (increased by STZ) ([3]; Test Example 2, 5 mg/kg to the abdominal cavity over 7 days from STZ dosing, 21 days from dosing, FIG. 2(a)): significant improvements
concentration of glucose in the blood (increased by STZ) ([3]; Test Example 3, 5 mg/kg to the abdominal cavity 15 days from the 7th day after STZ dosing, 21 days from dosing, FIG. 3(a)): significant improvements
Degrees of pancreatitis, 0 (0%) (Langerhans' islands; 1-7 days): 70%
Degrees of pancreatitis, I (0-25%) (Langerhans' islands; 1-7 days): 23%
Degrees of pancreatitis, II (25-50%) (Langerhans' islands; 1-7 days): 4%
Degrees of pancreatitis, III (50-100%) (Langerhans' islands; 1-7 days): 3%
Incidence of pancreatitis (I-III) (Langerhans' islands; 1-7 days): 30%
Degrees of pancreatitis, 0 (0%) (Langerhans' islands; 1-21 days (first line)): 70%
Degrees of pancreatitis, I (0-25%) (Langerhans' islands; 1-21 days (first line)): 25%
Degrees of pancreatitis, II (25-50%) (Langerhans' islands; 1-21 days (first line)): 4%
Degrees of pancreatitis, III (50-100%) (Langerhans' islands; 1-21 days (first line)): 1%
Incidence of pancreatitis (I-III) (Langerhans' islands; 1-21 days (first line)): 30%
Degrees of pancreatitis, 0 (0%) (Langerhans' islands; third line, 1-21 days): 68%
Degrees of pancreatitis, I (0-25%) (Langerhans' islands; third line, 1-21 days): 30%
Degrees of pancreatitis, II (25-50%) (Langerhans' islands; third line, 1-21 days): 1%
Degrees of pancreatitis, III (50-100%) (Langerhans' islands; third line, 1-21 days): 1%
Incidence of pancreatitis (I-III) (Langerhans' islands; third line, 1-21 days): 32%
infiltrated cells in the Langerhans' islands (increased by STZ dosing) (Langerhans' islands; Test Example 4, 21 days from dosing): successfully decreased the infiltrated cells
LD50 (SD rats; female): ≥ 7,050 mg/kg
LD50 (SD rats; male): ≥ 7,700 mg/kg
general symptoms (SD rats and mice; in vivo): general symptoms of appeasement, diarrhea, vomiting and typhlectasis
difference in acute toxicity between Compound a and Composition b (SD rats and mice; oral, mice and rats): no significant difference
